Measurements taken from patent US10583109B2, “Use of silver(I) complexes as anticancer agents” (University of Johannesburg, priority 2012, dated 2020).

Test system: SNO-oesophageal cancer cells
Test: Flow cytometric analysis (Annexin-V FITC / PI) of apoptosis and/or necrosis in SNO-oesophageal cancer cells
Type: cell-based
Details: 10 μM
Protocol: To determine if either apoptosis or necrosis occurred, the cells were double labelled with Annexin-V FITC and Propidium Iodide (PI) by means of an Annexin-V FITC assay kit (Serotec, UK). This was done according to manufacturer's instructions with a few adjustments. Briefly, the cells (±3×10^5 cells/ml) were washed twice with cold phosphate buffered saline (PBS), followed by the addition of 100 μl 1× binding buffer. Two and a half microliters of Annexin-V along with 5 μl PI were added in the dark and was incubated for 15 minutes at room temperature. After incubation, 400 μl 1× binding buffer was added and cells were analysed using the FACSAria flow cytometer (BD Biosciences, San Jose, Calif.) with FACSDiva software (BD Biosciences, San Jose, Calif.) 492 nm (excitation) and 520 nm for Annexin and 488 nm and 575 nm(emission) for PI.
The cell membrane contains a negatively charged phosphatidylserine (PS) on the inner leaflet and is exposed when apoptosis or necrosis takes place. Annexin-V interacts with PS in both apoptotic and necrotic cells, making these cellular deaths undistinguishable. This is overcome by using PI as an alternative label that interacts with the exposed DNA of necrotic cells only, leading to the fluorescent detection of both these labels. Pie charts (FIG. 9) were constructed for all the controls (including Ligand-1 to Ligand-5) and the different silver(I) thiocyanate phosphine complexes (1)-(5).
Pie charts representing the four different flow cytometric quadrants of Annexin-V and […] to determine the mode of cellular death induced in differentially treated SNO-oesophageal cells are represented in FIG. 9. An untreated control (A), apoptotic control (B) and necrotic control (C) were included. Cells were treated with 10 μM of the different ligands including the silver(I) thiocyanate phosphine complexes (1)-(5). An average percentage was calculated for all segments where the SEM is n=3 for all treatments except for 15% H2O2 (n=2). The four segments represent the following: White segment—negative for FITC and PI, Light grey segment—positive for FITC but negative for PI, Dark grey segment—positive for PI but negative for FITC and Black segment—positive for both FITC and PI. Cells undergoing early apoptosis are represented by the light grey segment, while those of late apoptosis and primary necrosis are represented by the black segment. Necrotic cells are represented by the dark grey segment and intact viable cells are shown by the white segment.
Approximately 3×10^5 cells were washed with ice cold phosphate buffered saline solution (PBS). The cells were double labeled using an Annexin-V FITC assay kit adjusting the protocol. A 1× binding buffer (100 μl) was used to fix the cells. Annexin-V (2.5 μl) and Propidium Iodide (PI—5 μl) labels were added respectively followed by a 15 minute incubation, at room temperature, in the dark. After the incubation period, 400 μl of the 1× binding buffer was added, where counting of the cellular events was made using an FACSAria flow cytometer (BD Biosciences, San Jose, Calif.) with FACSDiva software (BD Biosciences, San Jose, Calif.). This technique in particular identifies whether predicted apoptotic cell death (or necrosis) was induced by these complexes.
As observed in FIG. 14, dot blots represent the mode of cellular death induced in the SNO-oesophageal cancer cells after 24 hours of treatment. FIG. 14(a): 0.1% DMSO, FIG. 14(b): 100 μM CDDP, FIG. 14(c): 25% H2O2, FIG. 14(d-i): complexes (6)-(9). An average percentage was calculated for all quadrants where the SEM is n=2 for all treatments. The four quadrants represent the following: Quadrant Q3 is negative for FITC and PI, Quadrant Q4 is positive for FITC but negative for PI, Quadrant Q1 is positive for PI but negative for FITC and Quadrant Q2 is positive for both FITC and PI. Cells undergoing early apoptosis are more likely to be found in Quadrant Q4 while those of late apoptosis and primary necrosis will be found in Quadrant Q2. […]

Row | Molecule | viable cells (flow cytometry) (24 hour treatment) | apoptotic cell death (flow cytometry, Q4 and Q2) (24 hours of treatment) [%] | cancer cells in which apoptosis was induced (flow cytometry) (24 hour treatment)
1 | C1#[N+][Ag]([P+](c2ccccc2)(c2ccccc2)c2ccccc2)([P+](c2ccccc2)(c2ccccc2)c2ccccc2)[S]C#[N+][Ag]([P+](c2ccccc2)(c2ccccc2)c2ccccc2)([P+](c2ccccc2)(c2ccccc2)c2ccccc2)[S]1 [complex (1), [AgSCN(PPh3)2]2] | ~57.47% | – | –
2 | c1ccc([P+](c2ccccc2)(c2ccccc2)[Ag+]([P+](c2ccccc2)(c2ccccc2)c2ccccc2)([P+](c2ccccc2)(c2ccccc2)c2ccccc2)[P+](c2ccccc2)(c2ccccc2)c2ccccc2)cc1 [complex (9), AgNO3(PPh3)4] | – | 15.3 | –
3 | [AgSCN{P(4-FC6H4)3}2]2 [complex (3)] | approximately 28% | – | more than half
